Three compounds from patent US20040014972A1, “Arylpiperazine derivatives and their use as psychotropic agents” (priority 2000, published 2004) can be followed below.

As a reminder, the melting point is the temperature, or range, at which the solid turns liquid.

`O=C(O)/C=C/C(=O)O.OC(CCCN1CCN(c2cccc3cccnc23)CC1)c1ccc(F)cc1` (stereo not drawn) displayed a melting point of 145 to 146 °C.
The result for `Cl.Cl.O=C(CCCN1CCN(c2cccc3[nH]ccc23)CC1)c1ccc(F)cc1` reads 233 to 234 °C; that for `Cl.Cl.Cl.O.O.O=C(CCCN1CCN(c2cccc3cccnc23)CC1)c1ccc(F)cc1` (hydrate or solvate), 119 to 120 °C.
